The source of these data is PubChem BioAssay AID720726 (Broad Institute, 2013).

SMILES strings stand for the structures. The source made the active and inactive calls.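 How the source made its calls: active means fitted dose curve rising to 40 percent activity within the top usable dose; inconclusive means flat curve between 30 and 70 percent, or poor fit; inactive means the rest, including signal moving the wrong way.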

Tested on in one assay: not listed separately
As to the kind of experiment: activators raising endogenous miR-122 levels, dose response, orthogonal assay, cell-based, Huh7, qRT-PCR, dry powder (AID 720726). Particulars: Huh7 miR-122 levels, qRT-PCR, 48 h; at 35 µM (top of the series). Background: Real-time PCR tracks product formation cycle by cycle.
Consider `Cc1cccc(NC(=O)Nc2ccc3c(c2)C(=O)N(C)[C@@H]2CC[C@@H](CC(=O)NCc4ccccc4Cl)O[C@H]2CO3)c1`, for which the miR-122 fold change is 1.25 fold change (inactive).
On to `C/C=C/c1cnc2c(c1)C(=O)N([C@@H](C)CO)C[C@H](C)[C@H](CN(C)S(=O)(=O)c1ccc(OC)cc1)O2`, for which the miR-122 fold change is 1.05 fold change (inactive).
Same read-out and setting: to `CO[C@@H]1CN(C)C(=O)c2cc(NC(=O)c3ccc4c(c3)OCO4)ccc2OC[C@H](C)NC[C@@H]1C` belongs 1.02 fold change (inactive).
Same read-out and setting: to `O=C(Nc1ccc(-c2nc3ccccc3o2)cc1)c1cc(-n2cnnc2)ccc1Cl` belongs 0.17 fold change (inactive); to `Nc1ccc(Oc2ccc(Cl)cc2)cc1`, 0.496 fold change (inactive); to `O=C(CN=C1NS(=O)(=O)c2ccccc21)Nc1ccccc1N1CCCCCC1`, 1.09 fold change (inactive).
In the case of `C[C@H]1CN([C@@H](C)CO)C(=O)c2cc(C#Cc3ccccc3F)cnc2O[C@@H]1CN(C)C(=O)C1CCCCC1`, the miR-122 fold change was 0.164 fold change (inactive).
The same measure, in the same setting: to `COCC(=O)N(C)C[C@H]1Oc2cc(-c3ccc(C#N)cc3)ccc2S(=O)(=O)N([C@H](C)CO)C[C@H]1C` belongs 0.895 fold change (inactive); to `C[C@@H]1CN([C@@H](C)CO)S(=O)(=O)c2ccc(C#Cc3ccncc3)cc2O[C@H]1CN(C)C(=O)C1CCOCC1`, 0.639 fold change (inactive).
Consider `COc1ccc(-c2cnc3c(c2)C(=O)N([C@@H](C)CO)C[C@H](C)[C@H](CN(C)S(=O)(=O)c2ccc(OC)cc2)O3)cc1`, for which the miR-122 fold change was 1.26 fold change (inactive).
On to `Cc1cc(C(C)(C)C)cc(S(=O)(=O)N2CCOCC2)c1C`, for which the miR-122 fold change was 0.977 fold change (inactive).
On the same count and under the same terms, to `CN(C)CCN1C(=O)c2cccc3cc(N)cc(c23)C1=O` belongs 0.364 fold change (inactive).
Still for that read-out and setting: to `C[C@H]1CN([C@@H](C)CO)S(=O)(=O)c2ccc(C#Cc3ccncc3)cc2O[C@H]1CN(C)C(=O)C1CCOCC1` belongs 0.373 fold change (inactive).

In a further assay the test system is Huh7 miR-122 levels, qRT-PCR, 48 h. Described as above.
Conditions: not given
For the compound `COCC(=O)N(C)C[C@H]1Oc2cc(-c3ccccc3F)ccc2S(=O)(=O)N([C@H](C)CO)C[C@H]1C`, the AC40 is 18.9 µM.
On the same count and under the same terms, to `Cc1cccc(NC(=O)Nc2ccc3c(c2)C(=O)N(C)[C@@H]2CC[C@H](CC(=O)NCc4ccccc4Cl)O[C@H]2CO3)c1` belongs 8.38 µM; to `COCC(=O)N(C)C[C@H]1Oc2cc(C#Cc3cccnc3)ccc2S(=O)(=O)N([C@H](C)CO)C[C@H]1C`, 16.9 µM; to `CCCC#Cc1ccc2c(c1)O[C@H](CN(C)C(=O)c1ccncc1)[C@H](C)CN([C@@H](C)CO)S2(=O)=O`, 3.54 µM.
The same measure, in the same setting: to `CCCC#Cc1ccc2c(c1)O[C@H](CN(C)C(=O)COC)[C@H](C)CN([C@@H](C)CO)S2(=O)=O` belongs 23.9 µM.
